Measured values: paper PMC10650955, “α-Aminophosphonate inhibitors of metallo-β-lactamases NDM-1 and VIM-2” (RSC Medicinal Chemistry, 2023)
Where a name gives a salt, the structure may show the parent alone.

Experiments:
NDM-1 = molecular target: T1, NDM-1 (Klebsiella pneumoniae, UniProt C7C422); assay: Dose rate inhibition studies for IC50 determination, NDM-1 enzymatic assay; type: biochemical; settings: Enzyme IC50 NDM-1, 10 nM NDM-1, 100 μM ZnCl2, imipenem substrate, inhibitor 0-800 μM, 3 parallel measurements; N.I. = no enzyme inhibitory activity observed
T1 construct: made in house
T1 sequence (C7C422 29-270 limits assumed): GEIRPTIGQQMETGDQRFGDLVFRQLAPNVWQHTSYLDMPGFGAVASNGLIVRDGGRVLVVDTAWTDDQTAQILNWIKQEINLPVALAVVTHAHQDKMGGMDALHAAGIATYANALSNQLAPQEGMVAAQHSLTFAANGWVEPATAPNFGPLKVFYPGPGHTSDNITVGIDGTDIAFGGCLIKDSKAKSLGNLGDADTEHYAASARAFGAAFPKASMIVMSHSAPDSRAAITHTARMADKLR
Description: (§1) The […] synthesized compounds 5a–l were tested for their inhibitory activities against NDM-1, VIM-2 (Table 1), and GIM-1 in an in vitro enzymatic assay (ESI ^†).[41] The inhibitory activity was measured using enzyme concentrations of 0.1 nM VIM-2, 10 nM NDM-1 or 1 nM GIM-1, with an excess Zn(II) (100 μM, see Experimental methods), with inhibitor compounds with concentrations from 0 to 800 μM. Each data point was measured in triplicates. […] This is in line with previous reports.[42,43]
(§2) A 100 μl solution with buffer (50 mM HEPES (pH 7.2), 100 μM ZnCl2, 2.5% DMSO), purified enzyme (0.1 nM VIM-2, 10 nM NDM-1 or 1 nM GIM-1) and 800–0 μM inhibitor was incubated in a 96 well plate at 25 °C for 5 min. In addition, the enzyme buffer contained 400 μg ml^−1 bovine serum albumin (BSA) to prevent protein unfolding and loss of activity due to low concentrations.[67,68] 100 μM of the reporter substrate nitrocefin (VIM-2, GIM-1) or imipenem (NDM-1) was added to the enzyme–inhibitor solution and the increase in absorbance at 482 nm (nitrocefin) or 300 nm (imipenem) was recorded on a Spectramax M4 spectrophotometer (Molecular Devices). Each data point was performed in triplicates and the initial velocity for each inhibitor concentration was analyzed by a log [inhibitor] vs. response curve fitting to calculate IC50 in GraphPad Prism 9.2 software.

15N-labelled VIM-2 = molecular target: T2, 15N-labelled VIM-2 (Escherichia coli, UniProt Q5U7L7); assay: 1H,15N HSQC NMR chemical shift perturbation titration, VIM-2; type: binding; settings: VIM-2 Kd, 0-16 equiv. ligand, pH 7.0, 310 K
T2 construct: made in house
Description: (§3) Solution NMR spectroscopy is a powerful tool to assess protein–ligand interactions under close to physiological conditions.[47] We, therefore, performed NMR chemical shift perturbation (CSP, for details, see section S8, ESI ^†) experiments to identify the amino acid residues of NDM-1 and VIM-2 that are involved in inhibitor binding, making use of the previously published protein assignments.[48,49] Titrations were conducted using ^15N-labelled proteins with 0, 0.5, 1, 2, 4, 8, and 16 equiv. of 5 inhibitors for NDM-1 and of 7 inhibitors for VIM-2.
(§4) For the titrations, ^15N-labelled NDM-1 and ^15N-labelled VIM-2 (250 μM), and titrated ligands (0.5 equiv. in 1 μL) were prepared in the same buffer as the protein (20 mM KPO4, 0.1 mM ZnCl2, pH 7.0 with 10% D2O and 2.5% DMSO-d6). ^1H,^15N HSQC spectra were acquired with 128 × 1024 complex points (F1 × F2) and spectral width of 9090 × 2740 Hz on ^15N-labeled NDM-1/VIM-2 and with every titration step up to 1 : 16 ratio between protein : ligand (0, 0.5, 1, 2, 4, 8, and 16 equiv. of ligand). All experiments were recorded on a Bruker 600 MHz spectrometer at 310 K equipped with a 5 mm TCI cryogenic probe. The NMR data were processed on the MestReNova software with the Mnova Binding plugin. The weighted average chemical shift perturbations (CSP) for the backbone amides were calculated from the observed chemical shift differences in the proton and nitrogen dimensions using the equation (chemical shift scaling factors: FH = 1, FN = 0.156) CSP = Δδ1H,15N = [drawing 13] .
(§5) 7. Chemical shift perturbation histograms
(§6) Chemical shift perturbation was calculated according equation (1) 2
(§7) CSP = Δδ(1H,15N) = √(Δδ1H2 + (1⁄R × Δδ15N2) Rscale = 6.5 (1)
(§8) Where Δδ1H is the chemical shift change for proton dimension, Δδ15N is the chemical shift change for nitrogen dimension, Rscale is a
(§9) The chemical shift perturbations (CSP) were classified as significant (SSP) when the observed Δδ(1H,15N) was greater than the population
(§10) mean plus the standard deviation (µ+1σ) – solid line; (µ+2σ) – dashed line, and (µ+3σ) – dashed line.
(§11) Further on, Kd was calculated according: 3
(§12) ([P]+[L]+Kd)− √([P]+[L]+Kd)2−4[P][L]
(§13) ΔδmaxΔδobs = Δδmax 2[P] (2)
(§14) Where Kd is the dissociation constant, [P] and [L] are protein and ligand concentrations, respectively. Δδmax were estimated in
(§15) MestReNova by extrapolation of the obser ved chemical shift differences Δδobs.

VIM-2 = molecular target: T3, VIM-2 (Escherichia coli, UniProt Q5U7L7); assay: Dose rate inhibition studies for IC50 determination, VIM-2 enzymatic assay; type: biochemical; settings: inhibitor 0-800 μM, 3 parallel measurements, N.I. = no enzyme inhibitory activity observed
T3 construct: made in house
Description: as §1, §2

15N-labelled NDM-1 = molecular target: T4, 15N-labelled NDM-1 (Klebsiella pneumoniae, UniProt C7C422); assay: 1H,15N HSQC NMR chemical shift perturbation titration, NDM-1; type: binding
T4 construct: made in house
T4 sequence (C7C422 29-270 limits assumed): as above
Description: as §3, §4, §5, §6, §7, §8, §9, §10, §11, §12, §13, §14, §15

[1] = Estimated binding constant (Kd), residue 119T, Table S5, per-residue fit, NDM-1 119T
[2] = Estimated binding constant (Kd), residue 124D, Table S5, per-residue fit, NDM-1 124D
[3] = Estimated binding constant (Kd), residue 127G, Table S5, per-residue fit, NDM-1 127G
[4] = Estimated binding constant (Kd), residue 159H, Table S5, per-residue fit, NDM-1 159H
[5] = Estimated binding constant (Kd), residue 160S, Table S5, per-residue fit, NDM-1 160S
[6] = Estimated binding constant (Kd), residue 188G, Table S5, per-residue fit, NDM-1 188G
[7] = Estimated binding constant (Kd), residue 191S, Table S5, per-residue fit, NDM-1 191S
[8] = Estimated binding constant (Kd), residue 194I, Table S5, per-residue fit, NDM-1 194I
[9] = Estimated binding constant (Kd), residue 197G, Table S5, per-residue fit, NDM-1 197G
[10] = Estimated binding constant (Kd), residue 205F, Table S5, per-residue fit, NDM-1 205F
[11] = Estimated binding constant (Kd), residue 211K, Table S5, per-residue fit, NDM-1 211K
[12] = Estimated binding constant (Kd), residue 214K, Table S5, per-residue fit, NDM-1 214K
[13] = Estimated binding constant (Kd), residue 217S, Table S5, per-residue fit, NDM-1 217S
[14] = Estimated binding constant (Kd), residue 228H, Table S5, per-residue fit, NDM-1 228H
[15] = Estimated binding constant (Kd), residue 229Y, Table S5, per-residue fit, NDM-1 229Y
[16] = Estimated binding constant (Kd), residue 230A, Table S5, per-residue fit, NDM-1 230A
[17] = Estimated binding constant (Kd), residue 248M, Table S5, per-residue fit, NDM-1 248M
[18] = Estimated binding constant (Kd), residue 251S, Table S5, per-residue fit, NDM-1 251S
[19] = Estimated binding constant (Kd), residue 252A, Table S5, per-residue fit, NDM-1 252A
[20] = Estimated binding constant (Kd), residue 254D, Table S5, per-residue fit, NDM-1 254D
[21] = Estimated binding constant (Kd), residue 255S, Table S5, per-residue fit, NDM-1 255S
[22] = NDM-1 Kd, NMR chemical shift perturbation, 0-16 equiv. ligand, pH 7.0, 310 K

O=C(NC(C1CCCCN1)P(=O)(O)O)c1cccs1 (stereo not drawn) [Compound 5b-1, (Piperidin-2-yl(thiophene-2-carboxamido)methyl)phos-phonic acid hydrochloride]
IC50 (NDM-1): 230 ± 28 µM | Kd (15N-labelled VIM-2): 400 ± 40 µM | IC50 (VIM-2; Enzyme IC50 VIM-2, 0.1 nM VIM-2, 100 μM ZnCl2, nitrocefin substrate): 118 ± 60 µM | Kd (15N-labelled NDM-1; Estimated binding constant (Kd), residue 070F, Table S5, per-residue fit, NDM-1 070F): 2.92 mM | Kd (15N-labelled NDM-1; Estimated binding constant (Kd), residue 091T, Table S5, per-residue fit, NDM-1 091T): 5.76 mM | Kd (15N-labelled NDM-1; Estimated binding constant (Kd), residue 108E, Table S5, per-residue fit, NDM-1 108E): 6.63 mM | Kd (15N-labelled NDM-1; [1]): 18.1 mM | Kd (15N-labelled NDM-1; [2]): 3.17 mM | Kd (15N-labelled NDM-1; [3]): 8.34 mM | Kd (15N-labelled NDM-1; Estimated binding constant (Kd), residue 149A, Table S5, per-residue fit, NDM-1 149A): 1.71 mM | Kd (15N-labelled NDM-1; Estimated binding constant (Kd), residue 152E, Table S5, per-residue fit, NDM-1 152E): 3.52 mM | Kd (15N-labelled NDM-1; [4]): 21.5 mM | Kd (15N-labelled NDM-1; [5]): 8.97 mM | Kd (15N-labelled NDM-1; [6]): 3.4 mM | Kd (15N-labelled NDM-1; [7]): 0.85 mM | Kd (15N-labelled NDM-1; [8]): 2.93 mM | Kd (15N-labelled NDM-1; [9]): 10.4 mM | Kd (15N-labelled NDM-1; [10]): 11 mM | Kd (15N-labelled NDM-1; [11]): 3.49 mM | Kd (15N-labelled NDM-1; [12]): 1.36 mM | Kd (15N-labelled NDM-1; [13]): 10.5 mM | Kd (15N-labelled NDM-1; [14]): 11 mM | Kd (15N-labelled NDM-1; [15]): 2.24 mM | Kd (15N-labelled NDM-1; [16]): 4.33 mM | Kd (15N-labelled NDM-1; Estimated binding constant (Kd), residue 232S, Table S5, per-residue fit, NDM-1 232S): 12.1 mM | Kd (15N-labelled NDM-1; [17]): 12.9 mM | Kd (15N-labelled NDM-1; [18]): 6.07 mM | Kd (15N-labelled NDM-1; [19]): 3.48 mM | Kd (15N-labelled NDM-1; [20]): 9.74 mM | Kd (15N-labelled NDM-1; [21]): 7.37 mM | Kd (15N-labelled NDM-1; [22]): 2 ± 0.1 mM

O=C(Cc1cccs1)NC(C1CCCCN1)P(=O)(O)O (stereo not drawn) [Compound 5i-1, (Piperidin-2-yl(2-(thiophen-2-yl)acetamido)methyl)phos-phonic acid hydrochloride]
IC50 (NDM-1): 296 ± 87 µM | Kd (15N-labelled VIM-2): 1500 ± 200 µM | Enzyme IC50 VIM-2 (VIM-2; 0.1 nM VIM-2, 100 μM ZnCl2, nitrocefin substrate): N.I. | Kd (15N-labelled NDM-1; [1]): 0.93 mM | Kd (15N-labelled NDM-1; [2]): 3.53 mM | Kd (15N-labelled NDM-1; [3]): 8.94 mM | Kd (15N-labelled NDM-1; [4]): 2.47 mM | Kd (15N-labelled NDM-1; [5]): 0.25 mM | Kd (15N-labelled NDM-1; [6]): 0.49 mM | Kd (15N-labelled NDM-1; [7]): 0.12 mM | Kd (15N-labelled NDM-1; [8]): 4.99 mM | Kd (15N-labelled NDM-1; [9]): 1.27 mM | Kd (15N-labelled NDM-1; [10]): 2.3 mM | Kd (15N-labelled NDM-1; [11]): 0.14 mM | Kd (15N-labelled NDM-1; Estimated binding constant (Kd), residue 213S, Table S5, per-residue fit, NDM-1 213S): 0.39 mM | Kd (15N-labelled NDM-1; [12]): 0.57 mM | Kd (15N-labelled NDM-1; [13]): 3.06 mM | Kd (15N-labelled NDM-1; [14]): 3.08 mM | Kd (15N-labelled NDM-1; [15]): 0.34 mM | Kd (15N-labelled NDM-1; [16]): 0.18 mM | Kd (15N-labelled NDM-1; [17]): 0.78 mM | Kd (15N-labelled NDM-1; [18]): 1.82 mM | Kd (15N-labelled NDM-1; [19]): 0.48 mM | Kd (15N-labelled NDM-1; [20]): 7.53 mM | Kd (15N-labelled NDM-1; [21]): 9.91 mM | Kd (15N-labelled NDM-1; [22]): 0.5 ± 0.1 mM
